Test system: brain of rats subjected to severe traumatic brain injury (sTBI)
Assay: Ingenuity pathway analysis of differentially regulated genes after sTBI (canonical pathways, diseases and molecular functions; Example 4)
Set-up: species or system rat
Method: Pathway analysis of the differentially regulated genes was carried out using the Ingenuity pathway analysis package. The analysis was performed with special reference to pathways and molecular processes and diseases associated with neurodegenerative disease, including dementia, Alzheimer's disease, ALS, TBI and stroke, and with scarring and fibrosis, including glaucoma and normal pressure hydrocephalus (NPH) after subarachnoid haemorrhage.

[1] = TBI + 5 mg/kg LMW-DS, 7 days after TBI
[2] = TBI + 15 mg/kg LMW-DS, 2 days after TBI
[3] = TBI + 15 mg/kg LMW-DS, 7 days after TBI, relative to control
[4] = TBI + 15 mg/kg LMW-DS, 7 days after TBI
[5] = TBI + 15 mg/kg repeat dose LMW-DS, 7 days after TBI
[6] = TBI + 15 mg/kg repeated dose LMW-DS, 7 days after TBI, relative to control
[7] = TBI + 15 mg/kg repeated dose LMW-DS, 7 days after TBI

Substance: sodium salt of dextran sulfate [LMW-DS]
- Ingenuity canonical pathway: Acute Phase Response Signaling [1]: Activated
- Ingenuity canonical pathway: Adrenomedullin signaling pathway [1]: Inhibited
- Ingenuity canonical pathway: Cardiac Hypertrophy Signaling [1]: Activated
- Ingenuity canonical pathway: Colorectal Cancer Metastasis Signaling [1]: Inhibited
- Ingenuity canonical pathway: Dendritic Cell Maturation [1]: Activated
- Ingenuity canonical pathway: ERK5 Signaling [1]: Inhibited
- Ingenuity canonical pathway: ERK/MAPK Signaling [1]: Activated
- Ingenuity canonical pathway: Endothelin-1 Signaling [1]: Activated
- Ingenuity canonical pathway: Fcγ Receptor-mediated Phagocytosis in Macrophages and Monocytes [1]: Activated
- Ingenuity canonical pathway: GNRH Signaling [1]: Activated
- Ingenuity canonical pathway: HMGB1 Signaling [1]: Activated
- Ingenuity canonical pathway: IL-1 Signaling [1]: Activated
- Ingenuity canonical pathway: IL-6 Signaling [1]: Activated
- Ingenuity canonical pathway: IL-8 Signaling [1]: Activated
- Ingenuity canonical pathway: ILK Signaling [1]: Activated
- Ingenuity canonical pathway: Leukocyte Extravasation Signaling [1]: Activated
- Ingenuity canonical pathway: Neuroinflammation Signaling Pathway [1]: Activated
- Ingenuity canonical pathway: Osteoarthritis Pathway [1]: Inhibited
- Ingenuity canonical pathway: PI3K Signaling in B Lymphocytes [1]: Activated
- Ingenuity canonical pathway: PKCO Signaling in T Lymphocytes [1]: Activated
- Ingenuity canonical pathway: PPAR Signaling [1]: Inhibited
- Ingenuity canonical pathway: Phospholipase C Signaling [1]: Activated
- Ingenuity canonical pathway: Production of Nitric Oxide and Reactive Oxygen Species in Macrophages [1]: Activated
- Ingenuity canonical pathway: Protein Kinase A Signaling [1]: Inhibited
- Ingenuity canonical pathway: Role of NFAT in Regulation of the Immune Response [1]: Activated
- Ingenuity canonical pathway: Signaling by Rho Family GTPases [1]: Activated
- Ingenuity canonical pathway: Synaptic Long Term Depression [1]: Activated
- Ingenuity canonical pathway: Wnt/β-catenin Signaling [1]: Inhibited
- Ingenuity canonical pathway: cAMP-mediated signaling [1]: Inhibited
- Ingenuity canonical pathway: mTOR Signaling [1]: Activated
- Effect on diseases or functions annotation: Apoptosis [2]: Inhibited
- Effect on diseases or functions annotation: Apoptosis of tumor cell lines [2]: Activated
- Effect on diseases or functions annotation: Behavior [2]: Inhibited
- Effect on diseases or functions annotation: Cell death [2]: Inhibited
- Effect on diseases or functions annotation: Necrosis [2]: Inhibited
- Effect on diseases or functions annotation: Quantity of blood cells [2]: Inhibited
- Effect on diseases or functions annotation: Quantity of cells [2]: Inhibited
- Effect on diseases or functions annotation: Quantity of lymphocytes [2]: Inhibited
- z score, Ingenuity canonical pathway: Endothelin-1 Signaling [3]: 1
- z score, Ingenuity canonical pathway: Phospholipase C Signaling [3]: 2
- z score, Ingenuity canonical pathway: cAMP-mediated signaling [3]: 1
- Diseases or functions annotation: Abdominal neoplasm [4]: Inhibited
- Diseases or functions annotation: Apoptosis [4]: Inhibited
- Diseases or functions annotation: Apoptosis of tumor cell lines [4]: Activated
- Diseases or functions annotation: Cancer [4]: Activated
- Diseases or functions annotation: Carcinoma [4]: Activated
- Diseases or functions annotation: Cell death [4]: Inhibited
- Diseases or functions annotation: Cell death of tumor cell lines [4]: Activated
- Diseases or functions annotation: Cell movement of myeloid cells [4]: Activated
- Diseases or functions annotation: Development of carcinoma [4]: Activated
- Diseases or functions annotation: Development of connective tissue cells [4]: Activated
- Diseases or functions annotation: Development of malignant tumor [4]: Inhibited
- Diseases or functions annotation: Differentiation of bone cells [4]: Activated
- Diseases or functions annotation: Epithelial neoplasm [4]: Activated
- Diseases or functions annotation: Extracranial solid tumor [4]: Activated
- Diseases or functions annotation: Frequency of tumor [4]: Inhibited
- Diseases or functions annotation: Genitourinary tumor [4]: Activated
- Diseases or functions annotation: Incidence of tumor [4]: Inhibited
- Diseases or functions annotation: Leukocyte migration [4]: Activated
- Diseases or functions annotation: Necrosis [4]: Activated
- Diseases or functions annotation: Non-melanoma solid tumor [4]: Activated
- Diseases or functions annotation: Quantity of cells [4]: Activated
- Diseases or functions annotation: Solid tumor [4]: Activated
- Diseases or functions annotation: Transcription [4]: Activated
- Diseases or functions annotation: Transcription of RNA [4]: Activated
- Diseases or functions annotation: Tumorigenesis of epithelial neoplasm [4]: Activated
- Diseases or functions annotation: Tumorigenesis of tissue [4]: Activated
- Ingenuity canonical pathway: Endothelin-1 Signaling [4]: Activated
- Ingenuity canonical pathway: Phospholipase C Signaling [4]: Activated
- Ingenuity canonical pathway: cAMP-mediated signaling [4]: Activated
- Diseases or functions annotation: Abdominal cancer [5]: Inhibited
- Diseases or functions annotation: Abdominal neoplasm [5]: Inhibited
- Diseases or functions annotation: Adenocarcinoma [5]: Inhibited
- Diseases or functions annotation: Branching of cells [5]: Activated
- Diseases or functions annotation: Carcinoma [5]: Inhibited
- Diseases or functions annotation: Cell movement [5]: Activated
- Diseases or functions annotation: Cell-cell contact [5]: Activated
- Diseases or functions annotation: Concentration of hormone [5]: Activated
- Diseases or functions annotation: Concentration of lipid [5]: Inhibited
- Diseases or functions annotation: Dendritic growth/branching [5]: Inhibited
- Diseases or functions annotation: Development of connective tissue cells [5]: Inhibited
- Diseases or functions annotation: Development of gap junctions [5]: Activated
- Diseases or functions annotation: Development of neurons [5]: Activated
- Diseases or functions annotation: Developmental process of synapse [5]: Activated
- Diseases or functions annotation: Differentiation of bone cells [5]: Inhibited
- Diseases or functions annotation: Differentiation of connective tissue cells [5]: Inhibited
- Diseases or functions annotation: Digestive organ tumor [5]: Inhibited
- Diseases or functions annotation: Digestive system cancer [5]: Inhibited
- Diseases or functions annotation: Epithelial neoplasm [5]: Inhibited
- Diseases or functions annotation: Extracranial solid tumor [5]: Activated
- Diseases or functions annotation: Formation of cellular protrusions [5]: Activated
- Diseases or functions annotation: Formation of intercellular junctions [5]: Activated
- Diseases or functions annotation: Gastrointestinal tumor [5]: Inhibited
- Diseases or functions annotation: Hematologic cancer [5]: Inhibited
- Diseases or functions annotation: Hematopoietic neoplasm [5]: Inhibited
- Diseases or functions annotation: Learning [5]: Activated
- Diseases or functions annotation: Microtubule dynamics [5]: Activated
- Diseases or functions annotation: Migration of cells [5]: Activated
- Diseases or functions annotation: Morphogenesis of neurons [5]: Activated
- Diseases or functions annotation: Neurotransmission [5]: Activated
- Diseases or functions annotation: Non-hematological solid tumor [5]: Inhibited
- Diseases or functions annotation: Non-melanoma solid tumor [5]: Inhibited
- Diseases or functions annotation: Nonhematologic malignant neoplasm [5]: Inhibited
- Diseases or functions annotation: Obesity [5]: Activated
- Diseases or functions annotation: Organization of cytoplasm [5]: Activated
- Diseases or functions annotation: Organization of cytoskeleton [5]: Activated
- Diseases or functions annotation: Quantity of Ca^2+ [5]: Activated
- Diseases or functions annotation: Quantity of carbohydrate [5]: Inhibited
- Diseases or functions annotation: Quantity of cells [5]: Activated
- Diseases or functions annotation: Seizure disorder [5]: Activated
- Diseases or functions annotation: Size of body [5]: Activated
- Diseases or functions annotation: Skin lesion [5]: Activated
- Diseases or functions annotation: Transport of ion [5]: Activated
- Diseases or functions annotation: Transport of metal [5]: Activated
- Diseases or functions annotation: Transport of molecule [5]: Activated
- Diseases or functions annotation: Tumorigenesis of tissue [5]: Inhibited
- z score, Ingenuity canonical pathway: 3-phosphoinositide Degradation [6]: 2
- z score, Ingenuity canonical pathway: Acute Phase Response Signaling [6]: −0.447
- z score, Ingenuity canonical pathway: Adrenomedullin signaling pathway [6]: −0.378
- z score, Ingenuity canonical pathway: B Cell Receptor Signaling [6]: −0.447
- z score, Ingenuity canonical pathway: Ephrin Receptor Signaling [6]: 2.236
- z score, Ingenuity canonical pathway: Fc Epsilon RI Signaling [6]: −1
- z score, Ingenuity canonical pathway: G Beta Gamma Signaling [6]: 2.236
- z score, Ingenuity canonical pathway: NF-κB Signaling [6]: 0.447
- z score, Ingenuity canonical pathway: Opioid Signaling Pathway [6]: 0.816
- z score, Ingenuity canonical pathway: Role of NFAT in Cardiac Hypertrophy [6]: 0.447
- z score, Ingenuity canonical pathway: Role of NFAT in Regulation of the Immune Response [6]: 2.236
- z score, Ingenuity canonical pathway: Signaling by Rho Family GTPases [6]: 1
- z score, Ingenuity canonical pathway: Superpathway of Inositol Phosphate Compounds [6]: 2
- z score, Ingenuity canonical pathway: Synaptic Long Term Depression [6]: 1.342
- Ingenuity canonical pathway: 3-phosphoinositide Degradation [7]: Activated
- Ingenuity canonical pathway: Acute Phase Response Signaling [7]: Inhibited
- Ingenuity canonical pathway: Adrenomedullin signaling pathway [7]: Inhibited
- Ingenuity canonical pathway: B Cell Receptor Signaling [7]: Inhibited
- Ingenuity canonical pathway: Ephrin Receptor Signaling [7]: Activated
- Ingenuity canonical pathway: Fc Epsilon RI Signaling [7]: Inhibited
- Ingenuity canonical pathway: G Beta Gamma Signaling [7]: Activated
- Ingenuity canonical pathway: NF-κB Signaling [7]: Activated
- Ingenuity canonical pathway: Opioid Signaling Pathway [7]: Activated
- Ingenuity canonical pathway: Role of NFAT in Cardiac Hypertrophy [7]: Activated
- Ingenuity canonical pathway: Role of NFAT in Regulation of the Immune Response [7]: Activated
- Ingenuity canonical pathway: Signaling by Rho Family GTPases [7]: Activated
- Ingenuity canonical pathway: Superpathway of Inositol Phosphate Compounds [7]: Activated
- Ingenuity canonical pathway: Synaptic Long Term Depression [7]: Activated

From patent US20220128542A1, “TREATMENT EFFICIENCY EVALUATION” (TX MEDIC AB, priority 2019, published 2022)
